Where “and” joins values, the source holds several entries; their conditions need not be identical. Identical values can stand only once.
Legend:
[1] = test system: Common lambsquarters (CHEAL); assay: pre-emergence test, weed control; type: in vivo, Chenopodium album; settings: pre-emergent, 28 DAT
Procedure: (§1) Test compositions containing the test compounds were diluted with water to provide the appropriate test rate concentrations.
(§2) For pre-emergence testing, four disposable fiber flats (6 inch by 10 inch) for each rate of application of each herbicide solution were filled with top soil, to which seeds of each species were planted in furrows made by a template pressed on the top of the soil. The furrows were covered with soil after planting the seed and were watered well before application of the test compounds.
(§3) Fiber flats designated for treatment were placed in a spray chamber having a static platform and a movable sprayer and the height of the spray nozzle was 10.5 inches above the soil level. Once the sprayer was calibrated using water for spray volume of 30 gallons per acre, flats were sprayed with sprayer at a speed to receive a coverage equivalent of 30 gallons per acre. The application rates are those shown in the Tables below for the individual herbicidal solutions and the herbicide compositions of this invention. The pre-emergence flats were immediately placed in the greenhouse and watered lightly after treatment. Thereafter they were regularly watered and fertilized for the duration of the test.
(§4) The control of weeds was evaluated in each experimental test at 21 for wheat and 28 days after treatment (DAT) for all species. Data were analyzed using Minitab software at 95% confidence interval. The results, shown as an average of the replications, were compared with results observed in untreated control flats in the same tests. Percent control was determined by a method similar to the 0 to 100 rating system disclosed in “Research Methods in Weed Science,” 2nd ed., B. Truelove, Ed.; Southern Weed Science Society; Auburn University, Auburn, Ala., 1977. The rating system is as follows in Table 1.

[2] = test system: Kochia (KCHSC); assay: pre-emergence test, weed control; type: in vivo; settings: pre-emergent, 28 DAT; rate g ai/ha by row: r5 94, r6 125, r7 250, r8 3.28, r9 6.56, r10 13.1, r11 94+3.28, r12 94+6.56, r13 94+13.1, r14 125+3.28, r15 125+6.56, r16 125+13.1
Procedure: as §1, §2, §3, §4

[3] = test system: Rice flatsedge (CYPIR); assay: pre-emergence test, weed control; type: in vivo; settings: pre-emergent, 28 DAT; rate g ai/ha by row: r5 94, r6 125, r7 250, r8 3.28, r9 6.56, r10 13.1, r11 94+3.28, r12 94+6.56, r13 94+13.1, r14 125+3.28, r15 125+6.56, r16 125+13.1
Procedure: as §1, §2, §3, §4

[4] = test system: Common chickweed (STEME); assay: pre-emergence test, weed control; type: in vivo, Stellaria media; settings: pre-emergent, 28 DAT; BFL at 187.5 g, PYX at 90 g, combination of both
Procedure: as §1, §2
Fiber flats designated for treatment were placed in a spray chamber having a static platform and a movable sprayer and the height of the spray nozzle was 10.5 inches above the soil level. Once the sprayer was calibrated using water for spray volume of 30 gallons per acre, flats were sprayed with sprayer at a speed to receive a coverage equivalent of 30 gallons per acre. […]
The control of weeds was evaluated in each experimental test at 21 for wheat and 28 days after treatment (DAT) for all species. Data were analyzed using Minitab software at 95% confidence interval. […] Percent control was determined by a method similar to the 0 to 100 rating system disclosed in “Research Methods in Weed Science,” 2nd ed., B. Truelove, Ed.; Southern Weed Science Society; Auburn University, Auburn, Ala., 1977. […]

[5] = test system: Green foxtail (SETVI); assay: pre-emergence test, weed control; type: in vivo, Setaria viridis; settings: pre-emergent, 28 DAT
Procedure: as §1, §2, §3, §4

[6] = test system: Jimsonweed (DATST); assay: pre-emergence test, weed control; type: in vivo, Datura stramonium; settings: pre-emergent, 28 DAT; BFL at 187.5 g, PYX at 90 g, combination of both
Procedure: as §1, §2, §3, §4

[7] = test system: Wild oat (AVEFA); assay: pre-emergence test, weed control; type: in vivo, Avena fatua; settings: pre-emergent, 28 DAT
Procedure: as §1, §2, §3, §4

[8] = test system: Blackgrass (ALOMY); assay: pre-emergence test, weed control; type: in vivo; settings: pre-emergent, 28 DAT
Procedure: as §1, §2, §3, §4

[9] = test system: Cheat grass (BROSE); assay: pre-emergence test, weed control; type: in vivo; settings: pre-emergent, 28 DAT, (+)-BFL >95% e.e.; rate g ai/ha by row: r6 62.5, r7 125, r8 62.5, r9 125, r10 222, r11 445, r12 22.5, r13 45, r14 62.5+62.5, r15 125+62.5, r16 62.5+125, r17 125+125, r18 62.5+222, r19 125+222, r20 62.5+445, r21 125+445, r22 62.5+22.5, r23 125+22.5, r24 62.5+45, r25 125+45
Procedure: as §1, §2, §3, §4

[10] = test system: Hemp sesbania (SEHE8); assay: pre-emergence test, weed control; type: in vivo; settings: pre-emergent, 28 DAT; BFL at 187.5 g, PYX at 90 g, combination of both
Procedure: as §1, §2, §3, §4

[11] = test system: Yellow foxtail (SETLU); assay: pre-emergence test, weed control; type: in vivo; settings: pre-emergent, 28 DAT
Procedure: as §1, §2, §3, §4

[12] = test system: Palmer amaranth (AMAPA); assay: pre-emergence test, weed control; type: in vivo, Amaranthus palmeri; settings: pre-emergent, 28 DAT, (−)-BFL >95% e.e.; rate g ai/ha by row: r6 62, r7 125, r8 125, r9 250, r10 445, r11 890, r12 45, r13 90, r14 62+125, r15 125+125, r16 62+250, r17 125+250, r18 62+445, r19 125+445, r20 62+890, r21 125+890, r22 62+45, r23 125+45, r24 62+90, r25 125+90
Procedure: as §1, §2, §3, §4

[13] = test system: Green foxtail (SETVI); assay: post-emergence test, weed control; type: in vivo, Setaria viridis; settings: post-emergent, 28 DAT; BFL at 187.5 g, PYX at 90 g, combination of both
Procedure: as §1
(§5) For post-emergence testing, seeds of each species for each rate of application of each herbicide solution were planted in 7.5 cm×7.5 cm plastic pots filled with potting soil. The seeds were germinated and the resulting plants were allowed to grow in a greenhouse until they reached a growth stage, such as height, suitable for testing. Treatments were applied using compressed air in a track spray chamber at 30 gallons/acre (280 L/ha) using a TeeJet 8001E nozzle at 40 psi (2.76 bars). Pots of post-emergent treated plants were returned to the greenhouse and not watered for 24 hours after treatment. Thereafter they were regularly watered and fertilized for the duration of the test.
as §4

[14] = test system: Redrice (ORYSA); assay: post-emergence test, weed control; type: in vivo; settings: post-emergent, 28 DAT; BFL at 187.5 g, PYX at 90 g, combination of both
Procedure: as §1, §5, §4

[15] = test system: Wild oat (AVEFA); assay: post-emergence test, weed control; type: in vivo, Avena fatua; settings: post-emergent, 28 DAT; BFL at 187.5 g, PYX at 90 g, combination of both
Procedure: as §1, §5, §4

[16] = test system: Common chickweed (STEME); assay: post-emergence test, weed control; type: in vivo, Stellaria media; settings: post-emergent, 28 DAT; BFL at 187.5 g, PYX at 45 g, combination of both
Procedure: as §1
as §5, with “Treatments were applied using compressed air in a track spray chamber at 30 gallons/acre (280 L/ha) using a TeeJet 8001E nozzle at 40 psi (2.76 bars).” left out
The control of weeds was evaluated in each experimental test at 21 for wheat and 28 days after treatment (DAT) for all species. […] The rating system is as follows in Table 1.

[17] = (+)-BFL >95% e.e., rate g ai/ha by row: r6 62.5, r7 125, r8 62.5, r9 125, r10 222, r11 445, r12 22.5, r13 45, r14 62.5+62.5, r15 125+62.5, r16 62.5+125, r17 125+125, r18 62.5+222, r19 125+222, r20 62.5+445, r21 125+445, r22 62.5+22.5, r23 125+22.5, r24 62.5+45, r25 125+45
[18] = (+)-BFL >95% e.e., rate g ai/ha by row: r6 62.5, r7 125, r8 62.5, r9 125, r10 222, r11 445, r12 22.5, r13 45, r14 62.5+62.5, r15 125+62.5, r16 62.5+125, r17 125+125, r18 62.5+222, r19 125+222, r20 62.5+445, r21 125+445, r22 62.5+22.5, r23 125+22.5, r24 62.5+45, r25 125+45, 22.5 g ai/ha
[19] = (+)-BFL >95% e.e., rate g ai/ha by row: r6 62.5, r7 125, r8 62.5, r9 125, r10 222, r11 445, r12 22.5, r13 45, r14 62.5+62.5, r15 125+62.5, r16 62.5+125, r17 125+125, r18 62.5+222, r19 125+222, r20 62.5+445, r21 125+445, r22 62.5+22.5, r23 125+22.5, r24 62.5+45, r25 125+45, 45 g ai/ha
[20] = (−)-BFL >95% e.e., rate g ai/ha by row: r6 62, r7 125, r8 125, r9 250, r10 445, r11 890, r12 45, r13 90, r14 62+125, r15 125+125, r16 62+250, r17 125+250, r18 62+445, r19 125+445, r20 62+890, r21 125+890, r22 62+45, r23 125+45, r24 62+90, r25 125+90
[21] = (−)-BFL >95% e.e., rate g ai/ha by row: r6 62, r7 125, r8 125, r9 250, r10 445, r11 890, r12 45, r13 90, r14 62+125, r15 125+125, r16 62+250, r17 125+250, r18 62+445, r19 125+445, r20 62+890, r21 125+890, r22 62+45, r23 125+45, r24 62+90, r25 125+90, 45 g ai/ha
[22] = (−)-BFL >95% e.e., rate g ai/ha by row: r6 62, r7 125, r8 125, r9 250, r10 445, r11 890, r12 45, r13 90, r14 62+125, r15 125+125, r16 62+250, r17 125+250, r18 62+445, r19 125+445, r20 62+890, r21 125+890, r22 62+45, r23 125+45, r24 62+90, r25 125+90, 90 g ai/ha

## COC(=O)c1c(Cl)nn(C)c1S(=O)(=O)NC(=O)Nc1nc(OC)cc(OC)n1 [Halosulfuron-methyl]
[1]; rate g ai/ha by row: r5 94, r6 125, r7 250, r8 3.28, r9 6.56, r10 13.1, r11 94+3.28, r12 94+6.56, r13 94+13.1, r14 125+3.28, r15 125+6.56, r16 125+13.1
  percentage of weed control, Common lambsquarters CHEAL: 86% and 56% and 90%
[2]
  percentage of weed control, Kochia KCHSC: 66% and 38% and 40%
[3]
  percentage of weed control, Rice flatsedge CYPIR: 95% and 71% and 99%

## Cn1nc(C(F)(F)F)c(CS(=O)(=O)C2=NOC(C)(C)C2)c1OC(F)F [PYX, Pyroxasulfone]
[4]
  control of common chickweed: 67%
[1]; [17]
  percentage of weed control, CHEAL: 100%
[5]; [18]
  percentage of weed control, SETVI: 97%
[5]; [19]
  percentage of weed control, SETVI: 99%
[5]; [20]
  percentage of weed control, SETVI: 99%
[6]
  control of jimsonweed: 72%
[7]; [18]
  percentage of weed control, AVEFA: 98%
[7]; [19]
  percentage of weed control, AVEFA: 96%
[7]; [21]
  percentage of weed control, AVEFA: 100%
[7]; [22]
  percentage of weed control, AVEFA: 99%
[8]; [17]
  percentage of weed control, ALOMY: 100%
[8]; [21]
  percentage of weed control, ALOMY: 100%
[8]; [22]
  percentage of weed control, ALOMY: 99%
[9]
  percentage of weed control, BROSE: 100%
[10]
  control of hemp sesbania: 67%
[11]; [18]
  percentage of weed control, SETLU: 99%
[11]; [19]
  percentage of weed control, SETLU: 100%
[11]; [20]
  percentage of weed control, SETLU: 100%
[12]
  percentage of weed control, AMAPA: 100%
[13]
  control of green foxtail: 66%
[14]
  control of red rice: 39%
[15]
  control of wild oats: 48%
[16]
  control of common chickweed: 22%
